The values that follow come from patent EP4692094A1 (Beijing Konruns Pharmaceutical Co., Ltd., priority 2023, dated 2024).

The nature of data set [1]: Assay for plasma protein binding rate (equilibrium dialysis), dog plasma. To be noted: dialysis 6 h at 37 °C, read-out: Dog (Fu%). In kind it is in vitro ADME. The procedure: 1.1 Preparation of compounds: The compounds prepared in the examples were each dissolved in dimethylsulfoxide to give solutions at a concentration of 10 mmol/L. • 1) The example compounds were each diluted from 10 mmol/L stock solution to 0.2 mmol/L, i.e., 1 µL of the compound was added to 49 µL of DMSO; • 2) 3 µL of 0.2 mmol/L test compounds were added to 597 µL of blood plasma, and the mixtures were vortexed at 1000 rpm for 2 min; • 3) 50 µL of the plasma containing the drug in 2) was taken, 50 µL of PBS was added, and 300 µL of methanol internal standard* was added to serve as a sample T0; • 4) 120 µL of the plasma containing the drug in 2) was taken and added to one side of an HTD device membrane, and 120 µL of PBS was added to the other side of the membrane; a breathable film was covered, and the plasma and the residual sample in 2) were balanced at 37 °C (100 rpm and 5% CO2) for 6 h; • 5) 50 µL of the dialyzed plasma side sample was taken, 50 µL of PBS was added, and 300 µL of methanol internal standard* was added to serve as a sample P; • 6) 50 µL of the dialyzed PBS side sample was taken, 50 µL of blank plasma was added, and 300 µL of methanol internal standard* was added to serve as a sample B; • 7) 50 µL of the plasma containing the drug in 2) was taken, 50 µL of PBS was added, and 300 µL of methanol internal standard* was added to serve as a sample T6; • 8) All samples were vortexed, mixed homogeneously, and then centrifuged at 3220 g for 40 min at 4 °C; • 9) 100 µL of the supernatant and 100 µL of purified water were mixed homogenously for liquid chromatography-mass spectrometry.
An internal standard method was used, and the plasma protein binding rate, recovery rate, and residual percentage were calculated by using Excel according to the ratio of the peak area of the sample to the peak area of the internal standard. Free rate(%) = (RatioB)/(RatioP) × 100% [formula] Binding rate(%) = 100%−Free rate% [formula] Recovery rate(%) = (RatioB + RatioP)/(RatioT0) × 100% [formula] Remaining percentage(%) = (RatioT6)/(RatioT0) × 100% [formula]
RatioB: a ratio of the peak area of the test substance on the PBS side to the peak area of the internal standard; RatioP: a ratio of the peak area of the test substance on the plasma side to the peak area of the internal standard; RatioT6: a ratio of the peak area of the sample after incubation with the test substance for 6 h to the peak area of the internal standard; RatioT0: a ratio of the peak area of the sample after incubation with the test substance for 0 h to the peak area of the internal standard. Table 8. Plasma protein binding rate (Fu%) data for various species of example compounds
On the technique in general: In equilibrium dialysis only unbound substance equilibrates across the membrane.

The target in another data set is T1, CYP2D6 (Homo sapiens, UniProt P10635).
T1 construct: from tissue; host or cells: human liver microsomes
Put plainly: Inhibitory effect on P450 enzymes in vitro (human liver microsomes), CYP2D6. Conditions: probe dextromethorphan, final concentration 10 µM, substrate dextromethorphan, read-out: % inhibition rate CYP2D6 (dextromethorphan). The data set is classed as in vitro ADME. The procedure:
1.1 Preparation of compounds: The compounds prepared in the examples were each dissolved in dimethylsulfoxide to give solutions at a concentration of 2 mmol/L.
1.2 Test methods: • 1) Incubation system: human liver microsomes, a MgCl2 solution, a phosphate buffer solution, and a substrate solution were each added a 96-well deep-well plate and mixed homogenously. In the final incubation system, the concentration of the human liver microsomes was 0.2 mg/mL, and the final concentrations of the MgCl2 solution and the phosphate buffer solution were 5 mM and 100 mM, respectively. • 2) 1 µL of the substrate solution was added to the incubation system, and the final concentrations of CYP1A2 phenacetin, 2C8 paclitaxel […], 2C19 mephenytoin, 2D6 midazolam, and 3A midazolam substrates were 40 µM (phenacetin), 5 µM (paclitaxel), 50 µM (mephenytoin), 10 µM (mephenytoin), 5 µM (midazolam), and 50 µM […], respectively. • 3) 1 µL of the example compound or vehicle (DMSO) was added to the incubation system, and the incubation system was pre-warmed for 5 min in a 37 °C water bath before starting the reaction with 20 µL of 10 mM NADPH solution.
1.3 Sample treatment: Within the designated time (20 min for phenacetin, 10 min for paclitaxel, 20 min for mephenytoin, 20 min for dextromethorphan, 5 min for midazolam, and 10 min for testosterone), 400 µL of methanol containing the internal standard was added to terminate the reaction, and the mixture was vortexed and mixed homogeneously. Then, the deep-well plate was centrifuged at 3220 g and 4 °C for 40 min. 100 µL of the supernatant was transferred into a new plate, and 150 µL of purified water was added. The mixture was mixed homogenously for LC-MS/MS analysis. Table 11. Inhibitory effects of some compounds in the examples on CYP enzymes
A general note: Liver microsomes are a subcellular fraction often used to study metabolism.

As a reminder, the inhibition is the relative decrease from the control value, in per cent.

T1 sequence (P10635 whole entry): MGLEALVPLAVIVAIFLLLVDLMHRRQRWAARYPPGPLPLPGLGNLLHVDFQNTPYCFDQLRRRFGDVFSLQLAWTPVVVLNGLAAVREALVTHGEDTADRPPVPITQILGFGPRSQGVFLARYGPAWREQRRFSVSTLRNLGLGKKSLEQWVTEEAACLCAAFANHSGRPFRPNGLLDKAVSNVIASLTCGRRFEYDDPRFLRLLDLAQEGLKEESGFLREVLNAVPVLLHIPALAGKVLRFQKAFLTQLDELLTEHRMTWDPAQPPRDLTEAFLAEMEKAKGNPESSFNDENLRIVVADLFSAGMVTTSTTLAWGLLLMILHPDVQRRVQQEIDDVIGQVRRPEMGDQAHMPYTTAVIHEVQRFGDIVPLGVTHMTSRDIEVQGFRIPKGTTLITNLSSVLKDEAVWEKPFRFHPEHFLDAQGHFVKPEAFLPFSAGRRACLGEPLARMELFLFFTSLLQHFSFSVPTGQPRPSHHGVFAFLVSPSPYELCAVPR

As to `COc1cc2c(cc1S(=O)(=O)Nc1noc3cc(Cn4cccn4)nc(OC)c13)CCCC2` [Example 2, N-(6-((1H-Pyrazol-1-yl)methyl)-4-methoxyisoxazolo[4,5-c]pyridin-3-yl)-3-methoxy-5,6,7,8-tetrahydronaphthalene-2-sulfonamide], the fraction unbound at 6 h, 1 µM in data set [1] is 0.0013. The inhibition at 20 min, 10 µM on CYP2D6 was 5.38%.
For `COc1ccc2c(c1S(=O)(=O)Nc1noc3cc(Cn4cccn4)nc(OC)c13)OCC2` [Example 9, N-(6-((1H-Pyrazol-1-yl)methyl)-4-methoxyisoxazolo[4,5-c]pyridin-3-yl)-6-methoxy-2,3-dihydrobenzofuran-7-sulfonamide], the fraction unbound at 6 h, 1 µM in data set [1] worked out at 0.025.
Regarding `COc1ccc2ccoc2c1S(=O)(=O)Nc1noc2cc(Cn3cccn3)nc(OC)c12` [Example 10, N-(6-((1H-Pyrazol-1-yl)methyl)-4-methoxyisoxazolo[4,5-c]pyridin-3-yl)-6-methoxybenzofuran-7-sulfonamide], the fraction unbound at 6 h, 1 µM in data set [1] was 0.0145. On CYP2D6, the inhibition at 20 min, 10 µM was determined as 6.03%.
Turning to `COc1cc2c(cc1S(=O)(=O)Nc1noc3cc(Cn4cccn4)nc(OC)c13)OCC2` [Example 59, N-(6-((1H-Pyrazol-1-yl)methyl)-4-methoxyisoxazolo[4,5-c]pyridin-3-yl)-5-methoxy-2,3-dihydrobenzofuran-6-sulfonamide], the fraction unbound at 6 h, 1 µM in data set [1] was determined as 0.0143. Besides, the inhibition at 20 min, 10 µM at CYP2D6 was found to be 4.62%.
Regarding `COc1cc2c(cc1S(=O)(=O)Nc1noc3cc(Cn4cccn4)nc(OC)c13)CCCO2` [Example 76, N-(6-((1H-Pyrazol-1-yl)methyl)-4-methoxyisoxazolo[4,5-c]pyridin-3-yl)-7-methoxy-3,4-dihydro-1H-benzopyran-6-sulfonamide], the fraction unbound at 6 h, 1 µM in data set [1] was 0.0065.
